Experimental data reported in patent US20170217956A1, “AZAINDOLE RETINOIC ACID RECEPTOR-RELATED ORPHAN RECEPTOR MODULATORS AND USES THEREOF” (INNOV17 LLC, priority 2014, published 2017).

Legend:
Format in all cases: cell-based
Conditions in all cases: 72 h; human CD4+ T cells under TH17-polarizing conditions, 3 days, supernatant ELISA, 0.1% DMSO
[1] = system: IL-17A; assay: Human TH17 cytokine inhibition as measured by ELISA (IL-17A)
Description: (§1) Peripheral blood mononuclear cells (PBMCs) were sourced from freshly prepared leukocyte enriched plasma (buffy coat) from healthy donors (New York Blood Center). PBMCs were isolated by density gradient centrifugation using Ficoll-Paque™ PLUS (GE Healthcare). Human CD4+ T cells were seeded into 96-well plates (5×10^4 cells/well) and activated with plate-bound anti-human (h)-CD3 antibody and soluble h-aCD28 (both at 1 ug/ml; eBioscience) and differentiated into TH17 cells with 20 ng/mL h-IL-6, 5 ng/mL h-TGF-β1, 10 ng/mL h-IL-23 (eBioscience) and 10 ng/mL IL-1β (Miltenyi Biotec) in serum-free TexMACS Medium (Miltenyi Biotec) supplemented with 1% Penicillin/Streptomycin (Lonza) for 3 days. CD4+ T cells propagated under TH17-polarizing conditions were cultured in the presence or absence of various concentrations of compounds with a final concentration of 0.1% DMSO. Supernatants were collected and stored at −20° C. until assayed for IL-17A, IL-17F and IL-21 levels by “Ready-Set-Go” ELISA kits (eBioscience) as per manufacturer's instructions. Endpoint absorbance was read at 450 nm using a microplate reader (Perkin Elmer).

[2] = system: IL-22; assay: Human TH17 cytokine inhibition as measured by ELISA (IL-22)
[3] = system: IL-17F; assay: Human TH17 cytokine inhibition as measured by ELISA (IL-17F)
Description: as §1

[4] = system: IL-21; assay: Human TH17 cytokine inhibition as measured by ELISA (IL-21)
Description: as §1

Row | IC50 [1] [µM] | IC50 [2] [µM] | IC50 [3] [µM] | IC50 [4] [µM] | SMILES
1 | < 10 | < 10 | < 10 | < 10 | C[C@H]1C[C@H](Cn2ccc3nc(-c4cn[nH]c4)ccc32)CN1C(=O)CCc1ccccc1 (racemic) [Example 40, rac.-trans-1-(4-((5-(1H-pyrazol-4-yl)-1H-pyrrolo[3,2-b]pyridin-1-yl)methyl)-2-methylpyrrolidin-1-yl)-3-phenylpropan-1-one]
2 | < 10 |  | < 10 | < 10 | C[C@@H]1C[C@H](Cn2ccc3nc(-c4cn[nH]c4)ccc32)CN1C(=O)CCc1ccccc1 (racemic) [Example 41, rac.-cis-1-(4-((5-(1H-pyrazol-4-yl)-1H-pyrrolo[3,2-b]pyridin-1-yl)methyl)-2-methylpyrrolidin-1-yl)-3-phenylpropan-1-one]
